The results in this text go back to patent publication US20240277716A1, “Suppressive T Cell Populations and Methods of Cancer Immunotherapy” (La Jolla Institute for Immunology, priority 2021, published 2024).

What all share (format): in vivo, mouse
For data set [1], the system named is B16F10-OVA melanoma cells. Kind of data set: B16F10-OVA melanoma model, PI-3065 in diet: tumor volume and flow cytometry. As to the method:
(§1) Tumor experiments. Mice were inoculated with 1-1.5×10^5 B16F10-OVA cells subcutaneously into the right flank. Mice were put on either a control diet or a diet containing a PI3Kδ inhibitor PI-3065 on day 1 or day 5 after tumor inoculation. Diets were prepared using powdered 2018 global rodent diet (Envigo) mixed with or without PI-3065 at 0.5 g/kg, which corresponds to a daily dose of 75 mg/kg as used previously. To pellet the food, 50% v/w water was added to the diet and dough thoroughly mixed, compressed, molded and dried before use. Tumor size was monitored every other day, and tumor harvested at indicated time points for analysis of tumor-infiltrating lymphocytes. Tumor size limit of 15 mm in diameter was not exceeded and volume was calculated as ½×D×d^2, where D is the major axis and d is the minor axis, as described previously^36.
(§2) Murine lymphocytes were isolated from the spleen by mechanical dispersion through a 70-μm cell strainer (Miltenyi) to generate single-cell suspensions. RBC lysis (Biolegend) was performed to remove red blood cells. Tumor samples were harvested and lymphocytes were isolated by dispersing the tumor tissue in 2 ml of PBS, followed by incubation of samples at 37° C. for 15 min with DNase I (Sigma) and Liberase DL (Roche). The suspension was then diluted with MACS buffer and passed through a 70-μm cell strainer to generate a single cell suspension. Colons were collected and rinsed in 1 mM dithiothreitol (DTT) to remove feces. Each colon was cut into 2-3 mm pieces and incubated 3 times in pre-digestion solution (HBSS containing 5% FBS and 2 mM EDTA) at 37° C. for 20 min under high rotation to remove epithelial cells. Then tissues were minced with scissors and incubated with digestion solution (HBSS containing 5% FBS, 100 μg/ml DNase I (Sigma) and 1 mg/ml collagenase (Sigma)) at 37° C. for 20 min under high rotation to get single cell solutions of lamina propria cells. Cells were prepared in staining buffer (PBS with 2% FBS and 2 mM EDTA), FcR blocked (clone 2.4G2, BD Biosciences) and stained with antibodies as indicated below for 30 min at 4° C.; secondary stains were done for selected markers. Samples were then sorted or fixed and intracellularly stained using a FoxP3 transcription factor kit according to manufacturer's instructions (eBioscience). Cell viability was determined using fixable viability dye (ThermoFisher). The following antibodies from BD Biosciences, Biolegend, Miltenyi or eBbioscience were used: anti-human PD-1 (EH12.1, 1:30), CD4 (OKT4, 1:30), CD137 (4B4-1, 1:30), GITR (108-17, 1:30), ICOS (C398.4A, 1:50), CD8A (SKI, 1:30), CD25 (M-A251, 1:20), CD3 (SK7, 1:30), CD127 (eBioRDR5, 1:50), CD45 (HI30, 1:30), CD14 (HCD14, 1:50), CD20 (2H7, 1:50); anti-mouse CD3 (145-2C11, 1:100), CD4 (RM4-5, 1:100), CD8 (53-6.7, 1:100), PD-1 (29F1.A12, 1:100), ST2 (U29-93, 1:100) Ki67 (B56, 1:40), TOX (REA473, 1:40), CD19 (6D5, 1:100), CD45 (30-F11, 1:100), FOXP3 (FJK-16s, 1:100), GZMB (QA16A02, 1:40). All samples were acquired on a BD FACS Fortessa or sorted on a BD FACS Fusion (both BD Biosciences) and analyzed using FlowJo 10.4.1 for subsequent single-cell RNA-seq analysis.
For orientation: A flow cytometer gives signals particle by particle.

The test system of data set [2] is TREG cells from tumor, spleen and colonic tissue. Kind of data set: Single-cell RNA-seq and flow cytometry of TREG and CD8+ T cells from tumor, spleen and colon of B16F10-OVA tumor-bearing mice. As to the method: as §2
Murine TREG cells. […] Reads were mapped with Cell Ranger followed by QC (github.com/vijaybioinfo/quality_control) and demultiplexed with bcl2fastq using default parameters. […] Differential expression was calculated with MAST^38 (v1.10.0) DESeq2 (v1.24.0) as previously described^37 and genes with an adjusted P-value <0.05 and a fold change of >log2 0.5 were defined as significant. […]

Data set [3] deals with DSS-induced acute colitis. Kind of data set: Dextran Sulfate Sodium (DSS)-induced acute colitis model. As to the method: Colitis experiments. […] Body weight of the mice was monitored. Colon tissues were collected for histological analysis at the endpoint. Whole colons were harvested from mice between cecum and rectum. Stools were flushed out of lumen with PBS. Then colons were fixed with zinc formalin for 5 minutes. Fixed colons were opened longitudinally, flattened, cut into 3 fragments and further fixed in zinc formalin for 48 hours in cassettes. After fixation, samples were transferred to 70% isopropanol for long term storage or H&E staining. Slides were scored blindly according to the following criteria: inflammation, area of infiltration (extent), crypt damage and edema. The colon was divided into 3 equal parts and the middle section was utilized for scoring. Four randomly selected areas were analyzed, and a histological score was determined.

The subject of data set [4] is colonic CD8+ and CD4+ T cells. As to the kind of experiment: scRNA sequencing of colonic CD8+ and CD4+ T cells under different PI3Kδi dosing regimens. As to the method: as §1
Murine colonic CD4+ and CD8+ T cells. Single-cell RNA-seq was performed by using the 10× platform. Mapping, aggregation, and QC was carried out as described above with the following thresholds: genes per cells range of [300, 4500], UMI content per cell […], percent of mitochondrial counts of <=10%, and a doublet score of <=0.3. Cluster of contaminant cells expressing epithelial, monocyte, and fibroblast markers was eliminated after the first round of clustering. The final number of cells were n=6415 CD4^+ T cells and n=2715 CD8^+ T cells.

For `Fc1ccc2[nH]ccc2c1-c1nc(N2CCOCC2)c2sc(CN3CCN(CC4CC4)CC3)cc2n1` [PI-3065], the tumor volume result in data set [1] (C57BL/6 wild-type mice, PI-3065 diet vs control) is “significant decrease”. Besides, the “TREG cells in tumor, spleen and colon” value in data set [1] (PI3Kδi-treated vs placebo-treated mice) is on record as “significant decrease”. Moreover, the tumor growth entry in data set [1] (continuous dosing (for the duration of the experiment)) was “decrease in tumor growth”; in data set [1] (infrequent dosing (2 days on, 5 days off), 2 cycles), “decrease in tumor growth, albeit not significantly”; in data set [1] (intermittent dosing (4 days on, 3 days off), 2 cycles) it was “significant decrease in tumor growth”. In addition, the “CD8+ T cell infiltration in colonic tissue” value in data set [1] (continuous dosing only) is “increased”. The “TREG cell levels in colonic tissue” value in data set [1] (continuous dosing only) was “decreased”. Further, the “intratumoral CD8+ T cells” value in data set [1] (high PD-1, increased proliferative and cytotoxic capacity) is “significant increase”. Besides, in data set [1] (post-PI3Kδi), the “TOX in CD8+ T cells” value was “increased”. Moreover, the “differentially expressed genes in colonic TREG cells” value in data set [2] (PI3Kδi vs placebo treatment) was 869 genes. The “colonic TREG subsets (clusters 2 and 8)” value in data set [2] (PI3Kδi-treated mice) is given as “depleted”. In data set [2] (colonic, but not splenic tissue), the “CD8+ T cells in colonic tissue” value is reported as “significant increase”. For the same molecule, the “ratio of CD8+ T cells to ST2 TREG cells” value in data set [2] (protein level) is given as “substantially increased”. For the same molecule, the body weight result in data set [3] (2.5% DSS from day 14-20, PI-3065 diet vs placebo) was “swift reduction in body weight”. The “deaths prior to experimental endpoint” value in data set [3] (PI3Kδ inhibitor-treated group, n=10) was “one”. The effect on colitis result in data set [3] (PI-3065 diet plus 2.5% DSS) was “exacerbates colitis”. For the same molecule, the overall colitis score entry in data set [3] (inflammation, crypt damage, extent, vs placebo) was “higher overall colitis score”. For the same molecule, the “innate-like CD8+ T cells in colon” value in data set [4] (across dosing regimens) was “dosing-dependent decrease”. Besides, the “TC17 and TH17 subsets and pertaining proliferating clusters, share of all cells” value in data set [4] (continuous dosing regimen) is recorded as approximately 50%. Besides, the “TC17 and TH17 subsets and pertaining proliferating clusters” value in data set [4] (other treatment conditions (intermittent, infrequent, control)) was “nearly completely absent”.
